Data from BindingDB's records for doi:10.1016/j.ejmech.2021.113336 (Zhejiang University, 2021).

Assay: Inhibition of P-glycoprotein in human MCF7/ADR cells assessed as reversal fold by measuring reduction in doxorubicin IC50 at 5 uM incubated for 48 hrs by CCK-8 assay

Compound	IC50 [µM]
COc1cc(OC)cc(-c2ccc(C(=O)N3CCc4cc(OC)c(OC)cc4C3)o2)c1	19.8
COc1cc2c(cc1OC)CN(C(=O)c1ccc(-c3ccc(Oc4ccccc4)cc3)o1)CC2	42
COc1ccc(OC)c(-c2ccc(C(=O)N3CCc4cc(OC)c(OC)cc4C3)o2)c1	18.8
COc1cc2c(cc1OC)CN(C(=O)c1ccc(-c3ccc(OC(C)C)cc3)o1)CC2	69.6
COc1cc2c(cc1OC)CN(C(=O)c1ccc(-c3ccccc3OC)o1)CC2	13.5
CCCCOc1ccc(-c2ccc(C(=O)N3CCc4cc(OC)c(OC)cc4C3)o2)cc1	62.7
COc1ccc(-c2ccc(C(=O)N3CCc4cc(OC)c(OC)cc4C3)o2)c(OC)c1	18.3
COc1cc2c(cc1OC)CN(C(=O)c1ccc(-c3ccc(OC(C)(C)C)cc3)o1)CC2	62.7
COc1cc2c(cc1OC)CN(C(=O)c1ccc(-c3cccc(OC)c3OC)o1)CC2	15.1
COc1cc2c(cc1OC)CN(C(=O)c1ccc(-c3ccc(OCC(C)C)cc3)o1)CC2	50.9
CCOc1ccc(-c2ccc(C(=O)N3CCc4cc(OC)c(OC)cc4C3)o2)cc1	15.4
COc1ccc(-c2ccc(C(=O)N3CCc4cc(OC)c(OC)cc4C3)o2)cc1	9.1
COc1cc2c(cc1OC)CN(C(=O)c1ccc(-c3ccc4c(c3)OCO4)o1)CC2	8.4
COc1cccc(-c2ccc(C(=O)N3CCc4cc(OC)c(OC)cc4C3)o2)c1	6.7
COc1ccc(-c2ccc(C(=O)N3CCc4cc(OC)c(OC)cc4C3)o2)cc1OC	9.7
CCCOc1ccc(-c2ccc(C(=O)N3CCc4cc(OC)c(OC)cc4C3)o2)cc1	44.6
COc1cc2c(cc1OC)CN(C(=O)c1ccc(-c3ccc(SC(C)C)cc3)o1)CC2	64.4
COc1cc2c(cc1OC)CN(C(=O)c1ccc(-c3ccc(OC(F)(F)F)cc3)o1)CC2	11.7
COc1cc2c(cc1OC)CN(C(=O)c1ccc(-c3cc(OC)c(OC)c(OC)c3)o1)CC2	18.2
